According to patent US12637499B2, “Adrenomedullin analog, method for producing the same, and pharmaceutical use thereof” (priority 2020, dated 2026):
Read-outs that look alike come from different tables or passages of the source. Where a SMILES comes first, the peptide text is derived from it. Bridges are numbered along the chain shown (N, C = ends). Where no end group is shown, it is not given here.

Legend:
in vitro [1] = assay: in vitro
Protocol: After the lapse of a predetermined time, a 30-μl portion was taken out of the reaction solution, transferred into 170 μl of 0.1% aqueous solution of trifluoroacetic acid (TFA), and stored at −80° C. until analysis.
Quantitative analysis was performed for AM contained in the thus-obtained samples of a reaction mixture with serum or plasma by using specific fluoroimmunoassay (Tosoh Corporation) with two antibodies differing in their recognition sites. […] In the figure, the abscissa represents reaction time (min), and the ordinate represents concentration of AM (UM).
In the figure, the abscissa represents reaction time (min), and the ordinate represents concentration of AM or an AM analog (μM).
In the figure, the abscissa represents the type of AM or an AM analog, and the ordinate represents residual rates of AM or an AM analog (%).

in vitro [2] = conditions: Experiment VIII; 10^−7 M, 37° C.; 1 hour after the beginning of reaction
Protocol: The stabilities of the AM analog peptides in serum were evaluated with the same procedure as in Experiment I except the following procedure. […] A reaction mixture containing 4 μL of phosphate buffer, 20 μL of human serum (Sigma-Aldrich Co. LLC, USA), and 14 μL of water was prepared. To the reaction mixture, 2 μL of AM or an AM analog peptide (2×10^−6 M, final concentration: 10^−7 M) was added, and reaction was initiated at 37° C. The reaction was terminated by addition of 160 μL of ELISA buffer to the reaction mixture 0, 1, or 4 hours after the beginning of reaction. […] In the figure, the abscissa represents reaction time (hr), and the ordinate represents concentration in serum of AM or an AM analog (%) represented as relative values to concentration of AM or an AM analog at the beginning of reaction (i.e., 0 hours after the beginning of reaction).

[3] = 50 nmol/kg subcutaneous, Experiment VI
Protocol: (§1) Eight-week-old male Wistar rats were purchased from Charles River Laboratories Japan, Inc. The rats were grown with normal feeds in the absence of specific pathogens under cycles of a 12-hour light period and a 12-hour dark period. […] To determine plasma AM concentrations, 50 nmol/kg of AM or an AM analog was subcutaneously administered. A peripheral blood sample was collected from the tail vein into a test tube (containing 21 μg of aprotinin and 0.3 mg of EDTA-2Na) at predetermined times (0, 15, 30, 60, and 120 minutes after administration). The test tube was centrifuged at 1,700×g to afford plasma.

in vivo [4] = conditions: male, Wistar, rat, sc, 50 nmol/kg; for AUC: in vivo
Protocol: as §1

in vivo [5] = assay: in vivo
Protocol: Seven-week-old male Wistar rats were prepared, and grown with normal feeds. To determine plasma AM concentrations, 50 nmol/kg of AM or an AM analog was subcutaneously administered. A peripheral blood sample was collected from the tail vein into a Kantan tube® (containing heparin Na, Eiken Chemical Co., Ltd., Tochigi, Japan) at predetermined times (0, 15, 30, 60, and 120 minutes after administration). The tube was centrifuged at 2,000×g. Plasma was collected from the tube, and transferred into a test tube (containing 21 μg of aprotinin and 0.3 mg of EDTA-2Na) and stored. […] In the figure, the abscissa represents elapsed time after subcutaneous administration (hr), and the ordinate represents concentration in plasma of AM or an AM analog (pM). In addition, maximum concentrations in blood (Cmax) of AM or the AM analogs in rat plasma after subcutaneous administration were calculated.

[6] = target: AM type 1 receptor (AMI receptor) (UniProt Q16602 23-461; O60895 43-175, limits assumed); assay: cell-based or functional assay
Chain of AM type 1 receptor (AMI receptor) (Q16602 23-461 limits assumed, chain 1 of 2): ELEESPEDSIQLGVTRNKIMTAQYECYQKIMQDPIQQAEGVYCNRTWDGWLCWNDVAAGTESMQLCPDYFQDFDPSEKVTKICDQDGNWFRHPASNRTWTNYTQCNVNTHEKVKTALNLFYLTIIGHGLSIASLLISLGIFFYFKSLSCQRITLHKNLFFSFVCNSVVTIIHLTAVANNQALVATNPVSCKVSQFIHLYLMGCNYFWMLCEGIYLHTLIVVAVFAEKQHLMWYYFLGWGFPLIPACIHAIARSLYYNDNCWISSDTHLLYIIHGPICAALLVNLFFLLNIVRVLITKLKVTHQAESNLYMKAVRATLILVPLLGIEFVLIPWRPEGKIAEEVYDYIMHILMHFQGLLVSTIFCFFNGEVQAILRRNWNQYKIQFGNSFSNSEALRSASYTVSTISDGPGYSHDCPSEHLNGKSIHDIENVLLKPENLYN
Chain of AM type 1 receptor (AMI receptor) (O60895 43-175 limits assumed, chain 2 of 2): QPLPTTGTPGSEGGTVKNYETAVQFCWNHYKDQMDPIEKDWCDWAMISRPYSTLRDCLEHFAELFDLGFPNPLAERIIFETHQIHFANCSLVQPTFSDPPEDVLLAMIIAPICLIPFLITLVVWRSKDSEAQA

Molecule: CC[C@H](C)[C@H](NC(=O)[C@H](CCC(N)=O)NC(=O)[C@H](Cc1c[nH]cn1)NC(=O)[C@H](C)NC(=O)[C@H](CC(C)C)NC(=O)[C@H](CCCCN)NC(=O)[C@H](CCC(N)=O)NC(=O)[C@@H](NC(=O)[C@@H](NC(=O)[C@@H]1CSSC[C@H](NC(=O)CNC(=O)[C@H](Cc2ccccc2)NC(=O)[C@@H](N)CO)C(=O)N[C@@H](CCCNC(=N)N)C(=O)N[C@@H](Cc2ccccc2)C(=O)NCC(=O)N[C@@H]([C@@H](C)O)C(=O)N1)[C@@H](C)O)C(C)C)C(=O)N[C@@H](Cc1ccc(O)cc1)C(=O)N[C@@H](CCC(N)=O)C(=O)N[C@@H](Cc1ccccc1)C(=O)N[C@H](C(=O)N[C@@H](CC(=O)O)C(=O)N[C@@H](CCCCN)C(=O)N[C@@H](CC(=O)O)C(=O)N[C@@H](CCCCN)C(=O)N[C@@H](CC(=O)O)C(=O)N[C@@H](CC(N)=O)C(=O)N[C@H](C(=O)N[C@@H](C)C(=O)N1CCC[C@H]1C(=O)N[C@@H](CCCNC(=N)N)C(=O)N[C@@H](CO)C(=O)N[C@@H](CCCCN)C(=O)N[C@H](C(=O)N[C@@H](CO)C(=O)N1CCC[C@H]1C(=O)N[C@@H](CCC(N)=O)C(=O)NCC(=O)N[C@@H](Cc1ccc(O)cc1)C(N)=O)[C@@H](C)CC)C(C)C)[C@@H](C)O [hAM(13-52), SFGCRFGTCTVQKLAHQIYQFTDKDKDNVAPRSKISPQGY-CONH2, reference compound]
- concentration of AM or AM analog in reaction mixture with serum (in vitro [1]; Experiment IV, 240 minutes after the beginning of reaction): below the detection limit
- residual rate in reaction mixture with serum (in vitro [1]; Experiment IV, 240 minutes vs 0 minutes after the beginning of reaction): 0.2%
- presence in reaction mixture with human serum (in vitro [2]): substantially disappeared
- detection in rat plasma after subcutaneous administration [3]: hardly detected
- AUC (in vivo [4]): 0.0832 nM·h
- Cmax (in vivo [4]; plasma): 0.165 nM

Molecule: CC[C@H](C)[C@H](NC(=O)[C@H](CCC(N)=O)NC(=O)[C@H](Cc1c[nH]cn1)NC(=O)[C@H](C)NC(=O)[C@H](CC(C)C)NC(=O)[C@H](CCCCN)NC(=O)[C@H](CCC(N)=O)NC(=O)[C@@H](NC(=O)[C@@H](NC(=O)[C@@H]1CSSC[C@H](NC(=O)CNC(=O)[C@H](Cc2ccccc2)NC(=O)[C@@H](N)CO)C(=O)N[C@@H](CCCNC(=N)N)C(=O)N[C@@H](Cc2ccccc2)C(=O)NCC(=O)N[C@@H]([C@@H](C)O)C(=O)N1)[C@@H](C)O)C(C)C)C(=O)N[C@@H](Cc1ccc(O)cc1)C(=O)N[C@@H](CCC(N)=O)C(=O)N[C@@H](Cc1ccccc1)C(=O)N[C@H](C(=O)N[C@@H](CC(=O)O)C(=O)N[C@@H](CCCCN)C(=O)N[C@@H](CC(=O)O)C(=O)N[C@@H](CCCCN)C(=O)N[C@@H](CC(=O)O)C(=O)N[C@@H](CC(N)=O)C(=O)N[C@H](C(=O)N[C@@H](C)C(=O)N1CCC[C@H]1C(=O)N[C@@H](C)C(=O)N[C@@H](CO)C(=O)N[C@@H](CCCCN)C(=O)N[C@H](C(=O)N[C@@H](CO)C(=O)N1CCC[C@H]1C(=O)N[C@@H](CCC(N)=O)C(=O)NCC(=O)N[C@@H](Cc1ccc(O)cc1)C(N)=O)[C@@H](C)CC)C(C)C)[C@@H](C)O [[Ala-44]hAM(13-52), SFGCRFGTCTVQKLAHQIYQFTDKDKDNVAPASKISPQGY-CONH2] (H-SFGCRFGTCTVQKLAHQIYQFTDKDKDNVAPASKISPQGY-NH2; disulfide 4-9; N-terminus assumed)
- change in amount with the lapse of reaction time in reaction mixture with serum (in vitro [1]; Experiment IV, up to 240 minutes): almost no decrease or only slight decrease in amount
- remaining at 4 h (in vitro [1]; serum, pH 7.1): 96.4%
- detection in rat plasma after subcutaneous administration (in vivo [5]; 50 nmol/kg subcutaneous, Experiment X): detected in rat plasma 15 minutes after administration
- Cmax (in vivo [5]; male, Wistar, rat, in vivo, sc, 50 nmol/kg): 0.777 nM
- detection in rat plasma after subcutaneous administration [3]: detected in rat plasma 15 minutes after administration
- Cmax relative to that of hAM(1-52) ([3]; rat): ≥ 100 times
- AUC (in vivo [4]): 0.578 nM·h
- Cmax (in vivo [4]; plasma): 1.17 nM
- half-life (in vivo [4]; plasma): 1.37 h

B1: [Phe-44]hAM(13-52) (peptide)
peptide: SFGCRFGTCTVQKLAHQIYQFTDKDKDNVAPFSKISPQGY-NH2
modifications: disulfide 4-9; N-terminus assumed
SMILES: CC[C@H](C)[C@H](NC(=O)[C@H](CCC(N)=O)NC(=O)[C@H](Cc1c[nH]cn1)NC(=O)[C@H](C)NC(=O)[C@H](CC(C)C)NC(=O)[C@H](CCCCN)NC(=O)[C@H](CCC(N)=O)NC(=O)[C@@H](NC(=O)[C@@H](NC(=O)[C@@H]1CSSC[C@H](NC(=O)CNC(=O)[C@H](Cc2ccccc2)NC(=O)[C@@H](N)CO)C(=O)N[C@@H](CCCNC(=N)N)C(=O)N[C@@H](Cc2ccccc2)C(=O)NCC(=O)N[C@@H]([C@@H](C)O)C(=O)N1)[C@@H](C)O)C(C)C)C(=O)N[C@@H](Cc1ccc(O)cc1)C(=O)N[C@@H](CCC(N)=O)C(=O)N[C@@H](Cc1ccccc1)C(=O)N[C@H](C(=O)N[C@@H](CC(=O)O)C(=O)N[C@@H](CCCCN)C(=O)N[C@@H](CC(=O)O)C(=O)N[C@@H](CCCCN)C(=O)N[C@@H](CC(=O)O)C(=O)N[C@@H](CC(N)=O)C(=O)N[C@H](C(=O)N[C@@H](C)C(=O)N1CCC[C@H]1C(=O)N[C@@H](Cc1ccccc1)C(=O)N[C@@H](CO)C(=O)N[C@@H](CCCCN)C(=O)N[C@H](C(=O)N[C@@H](CO)C(=O)N1CCC[C@H]1C(=O)N[C@@H](CCC(N)=O)C(=O)NCC(=O)N[C@@H](Cc1ccc(O)cc1)C(N)=O)[C@@H](C)CC)C(C)C)[C@@H](C)O
- logarithmic values of 50%-effective concentration (pEC50) for intracellular cAMP concentration-increasing activity [6]: 8.29 pEC50

B2: [Gly-44]hAM(13-52) (peptide)
peptide: SFGCRFGTCTVQKLAHQIYQFTDKDKDNVAPGSKISPQGY-NH2
modifications: disulfide 4-9; N-terminus assumed
SMILES: CC[C@H](C)[C@H](NC(=O)[C@H](CCC(N)=O)NC(=O)[C@H](Cc1c[nH]cn1)NC(=O)[C@H](C)NC(=O)[C@H](CC(C)C)NC(=O)[C@H](CCCCN)NC(=O)[C@H](CCC(N)=O)NC(=O)[C@@H](NC(=O)[C@@H](NC(=O)[C@@H]1CSSC[C@H](NC(=O)CNC(=O)[C@H](Cc2ccccc2)NC(=O)[C@@H](N)CO)C(=O)N[C@@H](CCCNC(=N)N)C(=O)N[C@@H](Cc2ccccc2)C(=O)NCC(=O)N[C@@H]([C@@H](C)O)C(=O)N1)[C@@H](C)O)C(C)C)C(=O)N[C@@H](Cc1ccc(O)cc1)C(=O)N[C@@H](CCC(N)=O)C(=O)N[C@@H](Cc1ccccc1)C(=O)N[C@H](C(=O)N[C@@H](CC(=O)O)C(=O)N[C@@H](CCCCN)C(=O)N[C@@H](CC(=O)O)C(=O)N[C@@H](CCCCN)C(=O)N[C@@H](CC(=O)O)C(=O)N[C@@H](CC(N)=O)C(=O)N[C@H](C(=O)N[C@@H](C)C(=O)N1CCC[C@H]1C(=O)NCC(=O)N[C@@H](CO)C(=O)N[C@@H](CCCCN)C(=O)N[C@H](C(=O)N[C@@H](CO)C(=O)N1CCC[C@H]1C(=O)N[C@@H](CCC(N)=O)C(=O)NCC(=O)N[C@@H](Cc1ccc(O)cc1)C(N)=O)[C@@H](C)CC)C(C)C)[C@@H](C)O
- logarithmic values of 50%-effective concentration (pEC50) for intracellular cAMP concentration-increasing activity [6]: 7.96 pEC50

B3: [des-Arg-44]hAM(13-52) (peptide)
peptide: SFGCRFGTCTVQKLAHQIYQFTDKDKDNVAPSKISPQGY-NH2
modifications: disulfide 4-9; N-terminus assumed
SMILES: CC[C@H](C)[C@H](NC(=O)[C@H](CCC(N)=O)NC(=O)[C@H](Cc1c[nH]cn1)NC(=O)[C@H](C)NC(=O)[C@H](CC(C)C)NC(=O)[C@H](CCCCN)NC(=O)[C@H](CCC(N)=O)NC(=O)[C@@H](NC(=O)[C@@H](NC(=O)[C@@H]1CSSC[C@H](NC(=O)CNC(=O)[C@H](Cc2ccccc2)NC(=O)[C@@H](N)CO)C(=O)N[C@@H](CCCNC(=N)N)C(=O)N[C@@H](Cc2ccccc2)C(=O)NCC(=O)N[C@@H]([C@@H](C)O)C(=O)N1)[C@@H](C)O)C(C)C)C(=O)N[C@@H](Cc1ccc(O)cc1)C(=O)N[C@@H](CCC(N)=O)C(=O)N[C@@H](Cc1ccccc1)C(=O)N[C@H](C(=O)N[C@@H](CC(=O)O)C(=O)N[C@@H](CCCCN)C(=O)N[C@@H](CC(=O)O)C(=O)N[C@@H](CCCCN)C(=O)N[C@@H](CC(=O)O)C(=O)N[C@@H](CC(N)=O)C(=O)N[C@H](C(=O)N[C@@H](C)C(=O)N1CCC[C@H]1C(=O)N[C@@H](CO)C(=O)N[C@@H](CCCCN)C(=O)N[C@H](C(=O)N[C@@H](CO)C(=O)N1CCC[C@H]1C(=O)N[C@@H](CCC(N)=O)C(=O)NCC(=O)N[C@@H](Cc1ccc(O)cc1)C(N)=O)[C@@H](C)CC)C(C)C)[C@@H](C)O
- logarithmic values of 50%-effective concentration (pEC50) for intracellular cAMP concentration-increasing activity [6]: 8.71 pEC50
